Laboratory results taken from patent US20230242526A1 (Zentaur Therapeutics International Limited, priority 2020, published 2023).

Columns and labels:
in vitro [1] = conditions: mouse, microsomes, pH 7.4, t1/2 mouse
Method: (§1) Human liver microsomes (cat. No. 452161), mouse liver microsomes (cat. No. 452701), were purchased from Corning.
(§2) Samples were analyzed using LC-MS/MS using a SCIEX API 4000 mass spectrometer coupled with Agilent HPLC analytical system. After separation on a ZORBAX XDB-C18 column (5 μm, 50×2.1 mm, column No. 50-282) using an acetonitrile-water gradient system, peaks were analyzed by mass spectroscopy (MS) using ESI ionization in Q1 and Q3 scan mode.
(§3) The LC and MS are all controlled by Analyst software.
(§4) The liver microsomes were incubated with 1.0 μM of the testing compound at 37° C. The incubation mixture contained 100 mM PBS buffer (pH=7.4), 3 mM MgCl2 and 1 mM NADPH. The concentration of liver microsome in the incubation mixture was 0.5 mg/mL for testing compound, and 0.2 mg/mL for MDZ and the total volume is 0.2 mL. […] Aliquots were withdrawn at time points of 0 min, 5 min and 20 min for MDZ. The reactions were terminated by transferring the aliquots to a methanol solution containing the internal standard […] for analytical quantification. The quenched samples were analyzed by LC-MS/MS. The incubations were carried out in duplicates. The metabolic stability of the testing compounds by the liver microsomes of human and mice is expressed as elimination half-life (t1/2). The results are shown as the means of duplicate determinations±SD.

in vitro [2] = conditions: human, microsomes, pH 7.4, t1/2 human
Method: as §1, §2, §3, §4

[3] = tested on: human breast squamous HCC1806 cell line; assay: CyQUANT Direct cell proliferation assay, HCC1806; format: cell-based; conditions: HCC1806, 168 h, 7 days
Source text: (§5) The human ovarian carcinoma OVCAR3 cell line (ATCC HTB-161™) or human breast squamous HCC1806 cell line (ATCC CRL 2335) were obtained from American Type Culture Collection (ATCC), and maintained in culture media according to the supplier's specification.
(§6) The CyQUANT® Direct Cell Proliferation Assay Kit (Invitrogen™, catalog No. G35012) was utilized to test the inhibitory activities of the CDK2 inhibitors described in this disclosure against OVCAR3 or HCC1806 tumor cells.
(§7) CyQUANT® Direct Cell Proliferation Assay: The spent medium from the purchased tumor cell culture plate was removed and the tumor cells were washed with PBS buffer twice. Trypsin (VWR catalog No. 0458-25G) was added to digest the tumor cells until tumor cells appeared round shaped and to dissociate adherent cells from the plate wall in which they are being cultured. Then RPMI-1640 media (HCC1806, Gibco™ catalog No, A10491-01) with 10% fetal bovine serum (FBS) (Hyclone™ catalog No. SV30160.03), or RPMI-1640 media (OVCAR-3, Gibco™ catalog No. 10370-021) with 20% FBS and 0.01 mg/mL insulin was added to stop the trypsin digestion reaction. The tumor cells were lightly agitated with a liquid transfer pipette to cause tumor cells suspended in the culture media. The cells were counted. The complete medium was used to prepare tumor cell suspension.
(§8) OVCAR3 or HCC1806 cells were seeded at 40 μL/well in 384-well plates in growth media containing FBS and cultured 24 hours in the incubator at 37° C., 5% CO2. […] Compound solutions were added by Agilent Bravo liquid handler. […] The control wells contained the growth medium having 0.1% DMSO. Cells were incubated at 37° C., 5% CO2 for 7 days.
(§9) CYQUANT Direct Cell Proliferation Assay (Molecular Probes, Eugene, Oreg.) was then performed following manufacturer's instructions to prepare the detection reagents. 50 μL of detection reagent was aliquot and added to each well and the cells were incubated at 37° C. for 1 hr.
(§10) The cell culture plates were placed on TECAN M1000 microplate reader to detect the fluorescence intensity at 508 nm excitation and 527 nm emission wavelengths. Graphpad Prism 6.0 software was used for data processing, preparing cell growth curve, calculating percentage inhibition on cell growth. IC50 values were calculated by concentration-response curve fitting utilizing a four-parameter analytical method using GraphPad Prism software.

[4] = tested on: human ovarian carcinoma OVCAR3 cell line; assay: CyQUANT Direct cell proliferation assay, OVCAR-3; format: cell-based; conditions: OVCAR-3, 168 h, 7 days
Source text: as §5, §6, §7, §8, §9, §10

CDK9/Cyclin T1 = CDK9/Cyclin T1 (Homo sapiens, UniProt P50750); assay: CDK9/Cyclin T1 kinase assay; format: biochemical
Chain of CDK9/Cyclin T1 (P50750 whole entry): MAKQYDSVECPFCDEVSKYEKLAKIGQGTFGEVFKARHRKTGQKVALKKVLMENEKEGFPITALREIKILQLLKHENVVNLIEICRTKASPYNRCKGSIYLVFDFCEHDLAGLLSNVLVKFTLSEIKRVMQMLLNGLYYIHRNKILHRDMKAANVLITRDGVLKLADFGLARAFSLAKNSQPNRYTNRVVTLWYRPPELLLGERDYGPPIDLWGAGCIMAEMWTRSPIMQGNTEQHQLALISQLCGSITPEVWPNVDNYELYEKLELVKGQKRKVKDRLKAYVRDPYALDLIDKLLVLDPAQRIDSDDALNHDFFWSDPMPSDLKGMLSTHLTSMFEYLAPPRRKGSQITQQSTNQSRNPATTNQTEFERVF
Chain of CDK9/Cyclin T1 (O60563 whole entry partner): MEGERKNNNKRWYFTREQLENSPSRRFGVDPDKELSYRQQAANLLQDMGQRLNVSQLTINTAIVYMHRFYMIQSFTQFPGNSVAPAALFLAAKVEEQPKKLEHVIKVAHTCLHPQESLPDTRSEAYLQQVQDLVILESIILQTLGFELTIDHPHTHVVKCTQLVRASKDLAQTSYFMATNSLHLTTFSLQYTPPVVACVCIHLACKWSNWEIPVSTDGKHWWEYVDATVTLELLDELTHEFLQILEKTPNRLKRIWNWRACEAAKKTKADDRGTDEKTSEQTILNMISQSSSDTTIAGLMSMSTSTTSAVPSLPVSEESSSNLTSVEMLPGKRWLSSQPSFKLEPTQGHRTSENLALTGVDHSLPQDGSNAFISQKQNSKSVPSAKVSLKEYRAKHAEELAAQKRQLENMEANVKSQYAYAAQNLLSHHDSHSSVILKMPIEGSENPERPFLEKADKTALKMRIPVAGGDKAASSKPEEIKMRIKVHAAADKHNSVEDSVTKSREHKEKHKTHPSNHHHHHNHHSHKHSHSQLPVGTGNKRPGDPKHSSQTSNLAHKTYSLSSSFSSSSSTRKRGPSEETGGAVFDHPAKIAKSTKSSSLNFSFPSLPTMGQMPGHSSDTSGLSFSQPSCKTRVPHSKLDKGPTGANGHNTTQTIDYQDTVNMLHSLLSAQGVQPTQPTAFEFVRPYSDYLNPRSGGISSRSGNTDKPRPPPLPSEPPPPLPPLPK
Method: (1). Recombinant enzymes CDK1, CDK2, CDK4, CDK6, CDK9, cyclin B1, cyclin A2, cyclin D3, cyclin E1, cyclin T1 were cloned and purified at Wuxi Biortus Biochemistry Co. Ltd.
(8) Peptide substrate-CDK9 (Ahx-GSRTPMY-NH2, Scilight-Peptide, Cat. C0769102).
The test compounds were dissolved and diluted in DMSO. A stock DMSO solution of the test compound of the invention was prepared by dissolving the compound in DMSO to form a 10 mM solution.
2 μL of testing compound solutions and 5 μL of enzyme solution were added into the 384-well microplate followed by a 10 minute incubation. The reaction was then initiated by the addition of 5 μL of peptide substrate and ATP mixture solution and incubated at 27° C. for 30 minutes. The enzyme reaction in each well was terminated by adding 4 μL of 120 mM EDTA solution. Each assay was carried out in duplicates.
DMSO was used as negative control (0%) for enzyme activity. 20 μM Staurosporine was used as positive control (100%) for enzyme activity.
Plates were read for fluorescence on a Caliper EZ Reader II by separating the fluorescent labeled substrate from the enzyme phosphorylation product by electrophoresis. Data were collected and analyzed using GraphPad Prism version 6.0 software.
Dose-response curves were plotted from inhibition data generated, each in duplicate, from 10 point serial dilutions of inhibitory compounds. Concentration of compound was plotted against % kinase activity. To generate IC50 values, the dose-response curves were then fitted to a standard sigmoidal curve and IC50 values were derived by nonlinear regression analysis.

half-life at 1 μM (in vitro [1]) [h] | half-life at 1 μM (in vitro [2]) [h] | IC50 [3] [nM] | IC50 [4] [nM] | IC50 (CDK9/Cyclin T1) [nM] | SMILES
1.2 | 28.9 | 35 |  |  | [2H]C([2H])([2H])c1cc2cnc(NC3CCN(S(C)(=O)=O)CC3)nc2n([C@@H]2CCC[C@@]2(C)O)c1=O [Comp. 37, (−)-8-((1R,2R)-2-hydroxy-2-methylcyclopentyl)-6-(methyl-d3)-2-((1-(methylsulfonyl)piperidin-4-yl)amino)pyrido[2,3-d]pyrimidin-7(8H)-one]
0.367 | 33.3 | 52.1 | 40.3 | 3440 | C[C@@]1(O)CCC[C@H]1n1c(=O)c(C(F)F)cc2cnc(NC3CCN(S(C)(=O)=O)CC3)nc21 [Comp. 5, (−)-6-(difluoromethyl)-8-((1R,2R)-2-hydroxy-2-methylcyclopentyl)-2-((1-(methylsulfonyl)piperidin-4-yl)amino)pyrido[2,3-d]pyrimidin-7(8H)-one, reference compound]
3.03 | 14.4 | 75 | 32.5 | 3640 | [2H]C(F)(F)c1cc2cnc(NC3CCN(S(C)(=O)=O)CC3)nc2n([C@@H]2CCC[C@@]2(C)O)c1=O [Comp. 28, (−)-6-(difluoromethyl-d)-8-((1R,2R)-2-hydroxy-2-methylcyclopentyl)-2-((1-(methylsulfonyl)piperidin-4-yl)amino)pyrido[2,3-d]pyrimidin-7(8H)-one]
0.275 | 7.7 | 41.5 |  |  | Cc1cc2cnc(NC3CCN(S(C)(=O)=O)CC3)nc2n([C@@H]2CCC[C@@]2(C)O)c1=O [Comp. 4, (−)-8-(2-hydroxy-2-methylcyclopentyl)-6-methyl-2-((1-(methylsulfonyl)piperidin-4-yl)amino)pyrido[2,3-d]pyrimidin-7(8H)-one, reference compound]
